Assay [1] is described as follows: Activation of IRF-mediated immune response in human THP1-Dual KO-STING cells co-expressing ISRE reporter assessed as normalized luciferase gene expression by measuring relative luciferase units at 50 uM incubated for 24 hrs by QUANTI Luc based microplate reader method. It is filed as functional.
The subject of assay [2] is THP1-Dual. Kind of assay: Cytotoxicity against human wild type THP1-Dual cells assessed as residual cell viability by CellTiter96 Aqueous One Solution Cell Proliferation Assay. It is filed as functional. The arrangement: concentration or dose not given beside the values.
Assay [3] is described as follows: Cytotoxicity against human THP1-Dual KO-STING cells assessed as residual cell viability by CellTiter96 Aqueous One Solution Cell Proliferation Assay. Format: functional. The arrangement: concentration or dose not given beside the values.
In assay [4] the target is Stimulator of interferon genes protein (Homo sapiens, UniProt Q86WV6). The settings on record: THP1-Dual, filed as activator, dose 50.0 µM, time 24.0 hrs.
Sequence of Stimulator of interferon genes protein (Q86WV6 whole entry): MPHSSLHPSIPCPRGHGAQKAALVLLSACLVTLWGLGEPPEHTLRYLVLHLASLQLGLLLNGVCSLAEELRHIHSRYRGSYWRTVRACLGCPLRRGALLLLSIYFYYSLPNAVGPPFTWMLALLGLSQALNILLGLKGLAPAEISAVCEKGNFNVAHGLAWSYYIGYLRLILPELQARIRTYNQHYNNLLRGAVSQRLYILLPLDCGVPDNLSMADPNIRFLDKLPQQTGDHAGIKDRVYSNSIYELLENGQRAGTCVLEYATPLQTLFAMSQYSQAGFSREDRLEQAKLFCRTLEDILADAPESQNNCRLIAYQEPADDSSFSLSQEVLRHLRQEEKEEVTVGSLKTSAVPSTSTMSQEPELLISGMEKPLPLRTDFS

Each structure is given as a SMILES string.

Consider `C=CCn1nc(C(=O)Nc2nc3cc(C(N)=O)ccc3n2CCCCNC(=O)OC(C)(C)C)cc1C`, for which the RLU stood at 1.4 in assay [1] and 0.9 in assay [4]. For the same compound, the Activity in assay [2] is listed as 96.1%; in assay [3] it was 103.9%.

Consider `CC(C)(C)OC(=O)NCCCCn1c(NC(=O)c2ccoc2)nc2cc(C(N)=O)ccc21`, for which the RLU amounted to 1 in assay [1] and 0.9 in assay [4]. Also, the figures for the Activity in assay [2] and in assay [3] were 90.3% and 96.2%, respectively.

Turning to `NC(=O)c1ccc2c(c1)nc(NC(=O)c1cc3ccccc3o1)n2CCCCn1c(NC(=O)c2cc3ccccc3o2)nc2cc(C(N)=O)ccc21`, the RLU turned out to be 1.3 in assay [1] and 0.9 in assay [4]. Further, the values for the Activity in assay [2] and in assay [3] were 103% and 96.8%, respectively.

As to `NC(=O)c1ccc2c(c1)nc(NC(=O)c1cc3ccccc3o1)n2C[C@@H](O)c1ccccc1`, the RLU in assay [1] and in assay [4] was 0.8 throughout. Also, the Activity amounted to 90.2% in assay [2] and 105.5% in assay [3].

With `CCn1nc(C)cc1C(=O)Nc1nc2cc(C(N)=O)ccc2n1CCCCNC(=O)c1ccccc1`, the RLU in assay [1] turned out to be 0.2; in assay [4] it was 7. In addition, the Activity in assay [2] worked out at 27.4%; in assay [3] it was 64.2%.

Take `NC(=O)c1ccc2c(c1)nc(NC(=O)c1nn(C3CCCCO3)c3ccccc13)n2C[C@@H](O)c1ccccc1` (some centres not stated): the RLU in assay [1] worked out at 0.9; in assay [4], 0.4. In addition, the Activity in assay [2] was 95.8%; in assay [3], 93.4%.

With `CCn1nc(C)cc1C(=O)Nc1nc2cc(C(N)=O)ccc2n1CCCCNC(=O)c1cc(C)nn1C`, the RLU in assay [1] came to 0.9; in assay [4], 93.3. In addition, the Activity in assay [2] was 66%; in assay [3], 105.4%.

Take `CCn1nc(C)cc1C(=O)NCCCCCn1c(NC(=O)c2cc(C)nn2CC)nc2cc(C(N)=O)ccc21`: the RLU in assay [1] is 0.3; in assay [4] it was 1. The Activity was determined as 44.9% in assay [2] and 77.5% in assay [3].

As for `CCn1nc(C)cc1C(=O)NCCCOc1cc(C(N)=O)cc2nc(NC(=O)c3cc(C)nn3CC)n(C)c12`, the RLU in assay [1] worked out at 0.9; in assay [4] it was 99.1. Moreover, the values for the Activity in assay [2] and in assay [3] were 94% and 113%, respectively.

Turning to `NC(=O)c1ccc2c(c1)nc(NC(=O)c1n[nH]c3ccccc13)n2C[C@@H](O)c1ccccc1`, the figures for the RLU in assay [1] and in assay [4] were 1.3 and 0.9, respectively. In addition, the figures for the Activity in assay [2] and in assay [3] were 91.2% and 100.9%, respectively.

As to `Cn1cc(C(=O)Nc2nc3cc(C(N)=O)ccc3n2C[C@@H](O)c2ccccc2)c(C(F)(F)F)n1`, the values for the RLU in assay [1] and in assay [4] were 1.1 and 0.8, respectively. The results for the Activity in assay [2] and in assay [3] were 89.4% and 92.4%, respectively.

For `CCn1nc(C)cc1C(=O)Nc1nc2cc(C(=O)OC)ccc2n1CCCCn1c(NC(=O)c2cc(C)nn2CC)nc2cc(C(=O)OC)ccc21`, the RLU in assay [1] and in assay [4] was 0.8 throughout. For the same compound, the results for the Activity in assay [2] and in assay [3] were 122% and 117.9%, respectively.

As for `CCn1nc(C)cc1C(=O)Nc1nc2cc(C(N)=O)ccc2n1CCCCCNC(=O)OC(C)(C)C`, the RLU in assay [1] worked out at 0.6; in assay [4] it was 16.3. Besides, the Activity in assay [2] is 54.9%; in assay [3], 87%.

Turning to `CCn1nc(C(F)(F)F)cc1C(=O)Nc1nc2cc(C(N)=O)ccc2n1CCCCNC(=O)OC(C)(C)C`, the RLU in assay [1] was found to be 1.1; in assay [4], 0.8. The figures for the Activity in assay [2] and in assay [3] were 99.4% and 89.9%, respectively.

In the case of `CCn1nc(C)cc1C(=O)Nc1nc2cc(C(N)=O)ccc2n1CCCCNC(C)=O`, the RLU in assay [1] stood at 0.3; in assay [4], 0.4. Besides, the Activity came to 40.8% in assay [2] and 74.9% in assay [3].

Consider `CCn1nc(C)cc1C(=O)Nc1nc2cc(C(N)=O)ccc2n1CCCCNC(=O)OC(C)(C)C`, for which the RLU in assay [1] was 0.6; in assay [4], 21. Also, the Activity is 97.6% in assay [2] and 78.4% in assay [3].

`NC(=O)c1ccc2c(c1)nc(NC(=O)c1ccoc1)n2C[C@@H](O)c1ccccc1`: the RLU in assay [1] stood at 0.9; in assay [4], 0.5. Also, the Activity in assay [2] was 88%; in assay [3], 94%.

Regarding `CCn1nc(C)cc1C(=O)Nc1nc2cc(C(=O)O)ccc2n1CCCCn1c(NC(=O)c2cc(C)nn2CC)nc2cc(C(=O)O)ccc21`, the RLU in assay [1] and in assay [4] was 0.6 each time. The Activity in assay [2] was found to be 113.1%; in assay [3], 101.6%.

Consider `CCn1nc(C)cc1C(=O)Nc1nc2cc(C(N)=O)cc(OC)c2n1C/C=C/Cn1c(NC(=O)c2cc(C)nn2CC)nc2cc(C(N)=O)cc(OCCCN)c21`, for which the RLU turned out to be 0.7 in assay [1] and 101 in assay [4].

On to `CCn1nc(C)cc1C(=O)Nc1nc2cc(C(N)=O)cc(OC)c2n1C/C=C/CNC(=O)OC(C)(C)C`, for which the RLU in assay [1] is 0.7; in assay [4], 13.7. Besides, the Activity in assay [2] was 89.5%; in assay [3] it was 87.7%.

Turning to `CCn1nc(C)cc1C(=O)Nc1nc2cc(C(N)=O)ccc2n1CCCCNC(=O)C(C)(C)C`, the results for the RLU in assay [1] and in assay [4] were 0.4 and 4.8, respectively. In addition, the Activity in assay [2] worked out at 103.7%; in assay [3] it was 58.6%.

For `Cc1cc(C(=O)Nc2nc3cc(C(N)=O)ccc3n2CCCCNC(=O)OC(C)(C)C)n(C(C)(C)C)n1`, the RLU in assay [1] came out at 1.2; in assay [4], 1.1. Also, the Activity in assay [2] is given as 83.5%; in assay [3] it was 82.7%.

Take `CCn1nc(C)cc1C(=O)Nc1nc2cc(C(N)=O)ccc2n1CCCCN`: the RLU in assay [1] stood at 1; in assay [4] it was 0.8. For the same compound, the figures for the Activity in assay [2] and in assay [3] were 95.2% and 85.5%, respectively.

As to `CCn1nc(C)cc1C(=O)Nc1nc2cc(C(N)=O)cc(OCCCN)c2n1C`, the RLU in assay [1] was 1; in assay [4], 101. Further, the Activity in assay [2] came out at 88%; in assay [3], 110%.

As for `CCn1nc(C)cc1C(=O)Nc1nc2cc(C(N)=O)cc(OCCCNC(=O)OC(C)(C)C)c2n1C`, the RLU in assay [1] came to 0.8; in assay [4], 127. The Activity in assay [2] was determined as 80.1%; in assay [3], 110%.

As to `CCn1nc(C)cc1C(=O)NCCCn1c(NC(=O)c2cc(C)nn2CC)nc2cc(C(N)=O)ccc21`, the RLU in assay [1] amounted to 0.4; in assay [4], 13.7. For the same compound, the Activity in assay [2] was 40.6%; in assay [3], 82.3%.

On to `CCn1nc(C)cc1C(=O)Nc1nc2cc(C(N)=O)ccc2n1CCCCNC(=O)c1cccnc1`, for which the values for the RLU in assay [1] and in assay [4] were 1.1 and 1, respectively. In addition, the Activity in assay [2] is listed as 98.9%; in assay [3] it was 96.4%.

As for `Nc1nc2c(ncn2[C@@H]2O[C@@H]3COP(=O)(O)O[C@H]4[C@@H](O)[C@H](n5cnc6c(N)ncnc65)O[C@@H]4COP(=O)(O)O[C@@H]2[C@@H]3O)c(=O)[nH]1`, in assay [2], the Activity is 76.5%.

The values are drawn from ChEMBL document CHEMBL5154810, “Development of Potent Immune Modulators Targeting Stimulator of Interferon Genes Receptor” (J Med Chem, 2022).
